{"source": "PubChem BioAssay AID1259409", "about": "(Chemical Carcinogenesis Research Information System (CCRIS), 2018)", "origin": "cited, not measured here", "tested_on": "rodent chemically induced tumor inhibition, incidence and multiplicity", "experiment": "CCRIS tumor inhibitor studies", "data": [{"smiles": "CC(C)=C1C=CC(O)CC1", "note": "(stereo not drawn)", "values": [{"measurement": "tumour outcome (control, treated, inhibition, significance)", "setting": "Carcinogen: 7,12-DIMETHYLBENZ[A]ANTHRACENE, 57-97-6, Dose [Inhibitor]: 0, 12 NMOL PER REPEATED APPLICATION FOR 20 WK (STUDY DURATION: 20 WK), Route [Inhibitor]: DERMAL, Species: MOUSE, Strain/Sex: CD-1/FEMALE, Target Tissue: Type of Lesion: SKIN: TUMOR, Dose [Carcinogen]: 100 UG ONCE, Promoter: OKADAIC ACID, 78111-17-8", "value": "87%, 67%, 23%, not calculated"}]}, {"smiles": "CCOC(=S)S", "values": [{"measurement": "tumour outcome (control, treated, inhibition, significance)", "setting": "Carcinogen: N-NITROSO-DIETHYLAMINE, 55-18-5, Dose [Inhibitor]: 12.5 MG/KG IN DRINKING WATER ADMINISTERED SIMULTANEOUSLY WITH CARCINOGEN (STUDY DURATION: 28 WK), Route [Inhibitor]: ORAL, Species: RAT, Strain/Sex: BD6/MALE, Target Tissue: Type of Lesion: LIVER: TUMOR, Dose [Carcinogen]: 80 MG/KG 1/WK FOR 10 WK, Promoter: NONE USED", "value": "12/14 (86%), 10/14 (71%), 16%, p>0.05"}, {"measurement": "tumour outcome (control, treated, inhibition, significance)", "setting": "Carcinogen: N-NITROSO-DIETHYLAMINE, 55-18-5, Dose [Inhibitor]: 25 MG/KG IN DRINKING WATER PLUS 100 MG/KG 1 HR BEFORE CARCINOGEN ADMINISTERED SIMULTANEOUSLY WITH CARCINOGEN (STUDY DURA, Route [Inhibitor]: ORAL, Species: RAT, Strain/Sex: BD6/MALE, Target Tissue: Type of Lesion: LIVER: TUMOR, Dose [Carcinogen]: 80 MG/KG 1/WK FOR 10 WK, Promoter: NONE USED", "value": "12/14 (86%), 6/12 (50%), 42%, p<0.05"}]}, {"smiles": "II", "values": [{"measurement": "outcome", "setting": "Carcinogen: N-METHYL-N-NITROSOUREA [684-93-5], Dose [Inhibitor]: 0.05% I2 IN DRINKING WATER, 2 WKS BEFORE CARCINOGEN AND FOR 26 WKS AFTER, Route [Inhibitor]: DRINKING WATER, Species: RAT, Strain/Sex: SPRAGUE-DAWLEY/FEMALE, Target Tissue: Type of Lesion: MAMMARY GLAND: CARCINOMA, Dose [Carcinogen]: 50 MG/KG BW ONCE AT 7 WKS OF AGE (IN SALINE SOLUTION)", "value": "8/11 (73%) vs 3/10 (30%) at 16 wks, p<0.05"}, {"measurement": "outcome", "setting": "Carcinogen: N-Methyl-N- nitrosourea (684-93-5), Dose [Inhibitor]: 0, 0.05% in drinking water for a total of 18 wks, Route [Inhibitor]: Oral, Species: Rat, Strain/Sex: Sprague-Dawley, female, Target Tissue: Type of Lesion: Mammary gland, Dose [Carcinogen]: 50 mg, study duration 16 wks after carcinogen", "value": "100%, 62.5%, p<0.05"}]}, {"smiles": "CCCCCCCCCCCCO", "values": [{"measurement": "tumour outcome (control, treated, inhibition, significance)", "setting": "Carcinogen: 4-(METHYLNITROSAMINO)-1-(3-PYRIDYL)-1-BUTANONE, 64091-91-4, Dose [Inhibitor]: 0, 1 UMOL IN 0.1 ML CORN OIL ONCE 2 HR PRIOR TO CARCINOGEN DOSE (STUDY DURATION: 16 WK), Route [Inhibitor]: GAVAGE, Species: MOUSE, Strain/Sex: STRAIN-A/FEMALE, Target Tissue: Type of Lesion: LUNG: ADENOMA, Dose [Carcinogen]: 10 UMOL IN 0.1 ML SALINE ONCE, Promoter: NONE USED", "value": "100%, 100%, 0%, not significant"}]}, {"smiles": "CC1(C)CC[C@]2(CO)CC[C@]3(C)C(=CC[C@@H]4[C@@]5(C)CC[C@H](O)[C@@](C)(CO)[C@@H]5CC[C@]43C)[C@@H]2C1", "values": [{"measurement": "tumour outcome (control, treated, inhibition, significance)", "setting": "Carcinogen: 7,12-DIMETHYLBENZ[A]ANTHRACENE, 57-97-6, Dose [Inhibitor]: 81 NMOL IN 100 µL ACETONE/DMSO (99:1) APPLIED 40 MIN PRIOR TO EACH PROMOTER DOSE (STUDY DURATION: 18 WK), Route [Inhibitor]: DERMAL, Species: MOUSE, Strain/Sex: ICR, Target Tissue: Type of Lesion: SKIN: CARCINOMA, Dose [Carcinogen]: 100 UG ONCE, Promoter: 12-O-TETRADECANOYLPHORBOL-13-ACETATE, 16561-29-8", "value": "100%, 40%, 60%, not calculated"}]}, {"smiles": "O=C(/C=C/c1ccc(O)cc1)c1ccc(O)cc1O", "values": [{"measurement": "tumour outcome (control, treated, inhibition, significance)", "setting": "Carcinogen: 7,12-DIMETHYLBENZ[A]ANTHRACENE, 57-97-6, Dose [Inhibitor]: 0, 0.4 UMOL 2/WK FOR 18 WK BEGINNING 10 D POST CARCINOGEN DOSE (STUDY DURATION: 20 WK), Route [Inhibitor]: DERMAL, Species: MOUSE, Strain/Sex: CD-1/FEMALE, Target Tissue: Type of Lesion: SKIN: PAPILLOMA, Dose [Carcinogen]: 200 NMOL ONCE, Promoter: 12-O-TETRADECANOYLPHORBOL-13-ACETATE, 16561-29-8", "value": "85%, 90%, -6%, not significant"}, {"measurement": "tumour outcome (control, treated, inhibition, significance)", "setting": "Carcinogen: 7,12-DIMETHYLBENZ[A]ANTHRACENE, 57-97-6, Dose [Inhibitor]: 0, 10 UMOL 2/WK FOR 18 WK BEGINNING 10 D POST CARCINOGEN DOSE (STUDY DURATION: 20 WK), Route [Inhibitor]: DERMAL, Species: MOUSE, Strain/Sex: CD-1/FEMALE, Target Tissue: Type of Lesion: SKIN: PAPILLOMA, Dose [Carcinogen]: 200 NMOL ONCE, Promoter: 12-O-TETRADECANOYLPHORBOL-13-ACETATE, 16561-29-8", "value": "85%, 50%, 41%, p<0.05"}, {"measurement": "tumour outcome (control, treated, inhibition, significance)", "setting": "Carcinogen: 7,12-DIMETHYLBENZ[A]ANTHRACENE, 57-97-6, Dose [Inhibitor]: 0, 10 UMOL 2/WK FOR 21 WK BEGINNING 10 D POST CARCINOGEN DOSE (STUDY DURATION: 23 WK), Route [Inhibitor]: DERMAL, Species: MOUSE, Strain/Sex: CD-1/FEMALE, Target Tissue: Type of Lesion: SKIN: PAPILLOMA, Dose [Carcinogen]: 200 NMOL ONCE, Promoter: 12-O-TETRADECANOYLPHORBOL-13-ACETATE, 16561-29-8", "value": "90%, 0%, 100%, p<0.05"}, {"measurement": "tumour outcome (control, treated, inhibition, significance)", "setting": "Carcinogen: 7,12-DIMETHYLBENZ[A]ANTHRACENE, 57-97-6, Dose [Inhibitor]: 0, 15 UMOL 2/WK FOR 18 WK BEGINNING 10 D POST CARCINOGEN DOSE (STUDY DURATION: 20 WK), Route [Inhibitor]: DERMAL, Species: MOUSE, Strain/Sex: CD-1/FEMALE, Target Tissue: Type of Lesion: SKIN: PAPILLOMA, Dose [Carcinogen]: 200 NMOL ONCE, Promoter: 12-O-TETRADECANOYLPHORBOL-13-ACETATE, 16561-29-8", "value": "85%, 5%, 95%, p<0.05"}]}, {"smiles": "O=C(O)c1ccc(-c2c3nc(c(-c4ccc(C(=O)O)cc4)c4ccc([nH]4)c(-c4ccc(C(=O)O)cc4)c4ccc([nH]4)c(-c4ccc(C(=O)O)cc4)c4nc2C=C4)C=C3)cc1", "values": [{"measurement": "tumour outcome (control, treated, inhibition, significance)", "setting": "Carcinogen: 7,12-DIMETHYLBENZ[A]ANTHRACENE [57-97-6], Dose [Inhibitor]: 0, 0.1% IN 0.2 ML DMSO-ACETONE (15:85, V/V) 2X/WK FOR 30 WK 10 MIN PRIOR TO PROMOTER DOSE (STUDY DURATION: 31 WK), Route [Inhibitor]: DERMAL, Species: MOUSE, Strain/Sex: ICR/FEMALE, Target Tissue: Type of Lesion: SKIN: PAPILLOMA, Dose [Carcinogen]: 0.2 UMOL ONCE (STUDY DURATION: 31 WK), Promoter: 12-O-TETRADECANOYLPHORBOL-13-ACETATE [16561-29-8]", "value": "100%, 73%, 27%, not calculated"}]}, {"smiles": "CC1=C(/C=C/C(C)=C/C=C/C(C)=C/C=C/C=C(C)/C=C/C=C(C)/C=C/C2=C(C)C(=O)[C@@H](O)CC2(C)C)C(C)(C)C[C@H](O)C1=O", "values": [{"measurement": "tumour outcome (control, treated, inhibition, significance)", "setting": "Carcinogen: 4-NITROQUINOLINE-1-OXIDE, 56-57-5, Dose [Inhibitor]: 0, 100 PPM IN DIET FOR 10 WK BEGINNING PRIOR TO CARCINOGEN TREATMENT (STUDY DURATION: 32 WK), Route [Inhibitor]: ORAL, Species: RAT, Strain/Sex: F344/MALE, Target Tissue: Type of Lesion: TONGUE: PAPILLOMA, Dose [Carcinogen]: 20 PPM IN DRINKING WATER FOR 8 WK, Promoter: NONE USED", "value": "4/24 (17%), 0/18 (0%), 100%, p<0.05"}, {"measurement": "tumour outcome (control, treated, inhibition, significance)", "setting": "Carcinogen: 4-NITROQUINOLINE-1-OXIDE, 56-57-5, Dose [Inhibitor]: 0, 100 PPM IN DIET FOR 10 WK BEGINNING PRIOR TO CARCINOGEN TREATMENT (STUDY DURATION: 32 WK), Route [Inhibitor]: ORAL, Species: RAT, Strain/Sex: F344/MALE, Target Tissue: Type of Lesion: TONGUE: SQUAMOUS CELL CARCINOMA, Dose [Carcinogen]: 20 PPM IN DRINKING WATER FOR 8 WK, Promoter: NONE USED", "value": "13/24 (54%), 0/18 (0%), 100%, p<0.05"}, {"measurement": "tumour outcome (control, treated, inhibition, significance)", "setting": "Carcinogen: 4-NITROQUINOLINE-1-OXIDE, 56-57-5, Dose [Inhibitor]: 0, 100 PPM IN DIET FOR 22 WK BEGINNING 1 WK POST CARCINOGEN TREATMENT (STUDY DURATION: 32 WK), Route [Inhibitor]: ORAL, Species: RAT, Strain/Sex: F344/MALE, Target Tissue: Type of Lesion: TONGUE: PAPILLOMA, Dose [Carcinogen]: 20 PPM IN DRINKING WATER FOR 8 WK, Promoter: NONE USED", "value": "4/24 (17%), 0/20 (0%), 100%, p<0.05"}, {"measurement": "tumour outcome (control, treated, inhibition, significance)", "setting": "Carcinogen: 4-NITROQUINOLINE-1-OXIDE, 56-57-5, Dose [Inhibitor]: 0, 100 PPM IN DIET FOR 22 WK BEGINNING 1 WK POST CARCINOGEN TREATMENT (STUDY DURATION: 32 WK), Route [Inhibitor]: ORAL, Species: RAT, Strain/Sex: F344/MALE, Target Tissue: Type of Lesion: TONGUE: SQUAMOUS CELL CARCINOMA, Dose [Carcinogen]: 20 PPM IN DRINKING WATER FOR 8 WK, Promoter: NONE USED", "value": "13/24 (54%), 0/20 (0%), 100%, p<0.05"}, {"measurement": "tumour outcome (control, treated, inhibition, significance)", "setting": "Carcinogen: N-BUTYL-N-(4-HYDROXYBUTYL)NITROSAMINE, 3817-11-6, Dose [Inhibitor]: 0, 50 PPM IN DRINKING WATER FOR 2O WK BEGINNING 1 WK POST CARCINOGEN TREATMENT (STUDY DURATION: 41 WK), Route [Inhibitor]: ORAL, Species: MOUSE, Strain/Sex: ICR/MALE, Target Tissue: Type of Lesion: URINARY BLADDER: CARCINOMA, Dose [Carcinogen]: 250 PPM IN DRINKING WATER FOR 20 WK, Promoter: NONE USED", "value": "15/36 (42%), 6/33 (18%), 57%, p<0.05"}, {"measurement": "tumour outcome (control, treated, inhibition, significance)", "setting": "Carcinogen: N-BUTYL-N-(4-HYDROXYBUTYL)NITROSAMINE, 3817-11-6, Dose [Inhibitor]: 0, 50 PPM IN DRINKING WATER FOR 20 WK BEGINNING 1 WK POST CARCINOGEN TREATMENT (STUDY DURATION: 41 WK), Route [Inhibitor]: ORAL, Species: MOUSE, Strain/Sex: ICR/MALE, Target Tissue: Type of Lesion: URINARY BLADDER: PAPILLOMA, Dose [Carcinogen]: 250 PPM IN DRINKING WATER FOR 20 WK, Promoter: NONE USED", "value": "2/36 (6%), 4/33 (12%), -100%, not significant"}]}]}
